The record followed here is patent US10544156B2, “Hemi-synthetic trilobine analogs for use as a drug” (PIERRE FABRE MEDICAMENT, priority 2015, dated 2020).

Usually inhibition stands for how much of the control response was suppressed. The EC50 is the concentration at which the effect is half-maximal.

Where two headings read alike, the source gives them in different places.

The assay deals with T1, human C-terminal DNMT3A (623-908a.a.) (Homo sapiens, UniProt Q9Y6K1).
T1 construct: The human C-terminal DNMT3A (623-908a.a.); made in house
T1 sequence (Q9Y6K1 627-912 limits assumed): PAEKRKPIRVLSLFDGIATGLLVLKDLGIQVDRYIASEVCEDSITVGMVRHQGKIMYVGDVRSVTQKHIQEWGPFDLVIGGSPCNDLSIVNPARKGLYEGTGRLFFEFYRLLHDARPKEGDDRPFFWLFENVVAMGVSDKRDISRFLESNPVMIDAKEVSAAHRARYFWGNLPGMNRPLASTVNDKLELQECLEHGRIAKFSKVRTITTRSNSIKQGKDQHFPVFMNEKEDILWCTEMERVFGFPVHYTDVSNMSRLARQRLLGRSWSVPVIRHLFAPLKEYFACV
Kind of assay: hDNMT3A assay (restriction-based fluorescence assay). The conditions noted are these: for inhibition at 10 µM: read-out: hDNMT 3A inhibition, Inhibition (%) 10 μM; for inhibition at 32 µM: read-out: hDNMT 3A inhibition, Inhibition (%) 32 μM. It is filed as biochemical. From the text: hDNMT3A enzyme inhibition was adapted from the restriction-based fluorescence assay protocol as described in the literature (Ceccaldi et al. Chem Bio Chem 2011, 12, 1337-1345). Briefly, a 5′-labelled biotin oligonucleotide is hybridized to its complementary strand labelled with 6-carboxyfluorescein at the 3′-end into a 384 well microplate (black Optiplates; Perkin Elmer) pre-coated with avidin. The duplex contains a unique CpG site overlapping with a restriction site of a methylation sensitive restriction enzyme. The human C-terminal DNMT3A (623-908a.a.), produced as described in (Gros et al. Nucl. Acids Res. 2013, 41(19):e185), was added in each well (200 ng/well) and mixed with the chemical compounds at desired concentrations and freshly prepared SAM (20 μM final concentration) to start the reaction in a total volume of 50 μL. After 1 hour incubation at 37° C. each well were washed three times with PBS, Tween-20 0.05%, NaCl (500 mM) and three more times with PBST. Specific fluorescent signals were detected with the methylation-sensitive restriction enzyme HpyCH4IV (NEB) as described and measured on a Perkin Elmer Envision detector. The percentage of inhibition is reported. The formula used to calculate the percentage of inhibition is [(X−Y)/X]×100, where X is the signal determined in the absence of the inhibitor and Y is the signal obtained in the presence of the inhibitor. The concentration at which 50% of efficacy of inhibition is observed (EC50) was determined by analysis of a concentration range of the tested compound in triplicates. The non-linear regression fittings with sigmoidal dose-response (variable slope) were performed with GraphPad Prism 4.03 (GraphPad Software).

Setting [1] is: concentration at which 50% of efficacy of inhibition is observed, read-out: EC50 (μM), hDNMT 3A inhibition.
Setting [2] is: interval line below the EC50 of the same compound, read-out: EC50 (μM), range given.

Take `COc1ccc2cc1Oc1ccc(cc1)C[C@H]1c3c(cc(OC)c4c3Oc3cc5c(cc3O4)CCN(C)[C@H]5C2)CCN1S(C)(=O)=O` [Product 13]: the inhibition at 10 µM amounted to 39% and the inhibition at 32 µM came to 45%.
The matching figures for `COc1ccc2cc1Oc1ccc(cc1)C[C@H]1c3c(cc(OC)c4c3Oc3cc5c(cc3O4)CCN(CCC#N)[C@H]5C2)CCN1C` [Product 22]: 60% and 64%.
The matching figures for `COc1ccc2cc1Oc1ccc(cc1)C[C@H]1c3c(cc(OC)c4c3Oc3cc5c(cc3O4)CCN(C)[C@H]5C2)CCN1C(=O)OCCCn1cnc2c(N)ncnc21` [Product 19]: 67% and 71%.
As to `CCN(CC)CCCNC(=O)N1CCc2cc3c4cc2[C@@H]1Cc1ccc(OC)c(c1)Oc1ccc(cc1)C[C@H]1c2c(cc(OC)c(c2O4)O3)CCN1C` [Product 50], the inhibition at 10 µM was found to be 69% and the inhibition at 32 µM turned out to be 91%. The EC50 under setting [1] was 2.06 µM. The EC50 under setting [2] fell in the range of 1.28 to 3.31 µM.
Consider `COc1ccc2cc1Oc1ccc(cc1)C[C@H]1c3c(cc(OC)c4c3Oc3cc5c(cc3O4)CCN(C)[C@H]5C2)CCN1CCC#N` [Product 16], for which the inhibition at 10 µM amounted to 56% and the inhibition at 32 µM was determined as 77%.
For `COc1ccc2cc1Oc1ccc(cc1)C[C@H]1c3c(cc(OC)c4c3Oc3cc5c(cc3O4)CCN(CCCn3cnc4c(N)ncnc43)[C@H]5C2)CCN1C` [Product 24], in that order: 42% and 77%.
`COc1ccc2cc1Oc1ccc(cc1)C[C@H]1c3c(cc(OC)c4c3Oc3cc5c(cc3O4)CCN(CC#N)[C@H]5C2)CCN1C` [Product 20]: the inhibition at 10 µM was 50% and the inhibition at 32 µM was determined as 66%.
As to `COc1ccc2cc1Oc1ccc(cc1)CC1c3c(cc(OC)c4c3Oc3cc5c(cc3O4)CCN(C)[C@H]5C2)CCN1C(=O)C1CCC(CN2C(=O)C=CC2=O)CC1` (stereo partly shown) [Product 30], the inhibition at 10 µM is 66% and the inhibition at 32 µM is 88%. Besides, the EC50 under setting [1] lay in the range of 4.19 to 9.36 µM.
For `C=CC(=O)N1CCc2cc(OC)c3c4c2C1Cc1ccc(cc1)Oc1cc(ccc1OC)C[C@H]1c2cc(c(cc2CCN1C)O3)O4` (stereo partly shown) [Product 31], the inhibition at 10 µM worked out at 43% and the inhibition at 32 µM was found to be 79%.
The matching figures for `COc1ccc2cc1Oc1ccc(cc1)CC1c3c(cc(OC)c4c3Oc3cc5c(cc3O4)CCN(C)[C@H]5C2)CCN1C=O` (stereo partly shown) [Product 10]: 17% and 72%.
The matching figures for `CNC(=O)N1CCc2cc3c4cc2[C@@H]1Cc1ccc(OC)c(c1)Oc1ccc(cc1)C[C@H]1c2c(cc(OC)c(c2O4)O3)CCN1C` [Product 45]: 31% and 73%.
Regarding `COc1ccc2cc1Oc1ccc(cc1)CC1c3c(cc(OC)c4c3Oc3cc5c(cc3O4)CCN(C)[C@H]5C2)CCN1C(=O)CCCl` (stereo partly shown) [Product 32], the inhibition at 10 µM was 57% and the inhibition at 32 µM is 82%. Besides, the EC50 under setting [1] is 5.34 to 6.87 µM.
Take `COc1ccc2cc1Oc1ccc(cc1)C[C@H]1c3c(cc(OC)c4c3Oc3cc5c(cc3O4)CCN(C)[C@H]5C2)CCN1C#N` [Product 15]: the inhibition at 10 µM stood at 46% and the inhibition at 32 µM amounted to 50%.
For `CNC(=O)N1CCc2cc3c4cc2[C@@H]1Cc1ccc(OC)c(c1)Oc1ccc(cc1)C[C@H]1c2c(cc(OC)c(c2O4)O3)CCN1C(=O)NC` [Product 43], in that order: 24% and 49%.
As for `CCN(CC)CCCNC(=S)N1CCc2cc(OC)c3c4c2[C@@H]1Cc1ccc(cc1)Oc1cc(ccc1OC)C[C@H]1c2cc(c(cc2CCN1C)O3)O4` [Product 12], the inhibition at 10 µM was 78% and the inhibition at 32 µM is 93%. For the same molecule, the EC50 under setting [1] lay in the range of 2.67 to 3.8 µM.
Turning to `CNC(=S)N1CCc2cc(OC)c3c4c2[C@@H]1Cc1ccc(cc1)Oc1cc(ccc1OC)C[C@H]1c2cc(c(cc2CCN1C)O3)O4` [Product 14], the inhibition at 10 µM was found to be 93% and the inhibition at 32 µM amounted to 96%. Moreover, the EC50 under setting [1] worked out at 1.91 µM. Under setting [2], the EC50 lay within 1.15 to 3.18 µM.
With `CNC(=S)N1CCc2cc3c4cc2[C@@H]1Cc1ccc(OC)c(c1)Oc1ccc(cc1)C[C@H]1c2c(cc(OC)c(c2O4)O3)CCN1C` [Product 46], the inhibition at 10 µM turned out to be 7% and the inhibition at 32 µM was 52%.
The matching figures for `COc1ccc2cc1Oc1ccc(cc1)C[C@H]1c3c(cc(OC)c4c3Oc3cc5c(cc3O4)CCN(C)[C@H]5C2)CCN1CC#N` [Product 17]: 69% and 79%.
Consider `COc1ccc2cc1Oc1ccc(cc1)C[C@H]1c3c(cc(OC)c4c3Oc3cc5c(cc3O4)CCN(C)[C@H]5C2)CCN1C(N)=O` [Product 11], for which the inhibition at 10 µM was 43% and the inhibition at 32 µM was determined as 77%.
The matching figures for `CNC(=S)N1CCc2cc3c4cc2[C@@H]1Cc1ccc(OC)c(c1)Oc1ccc(cc1)C[C@H]1c2c(cc(OC)c(c2O4)O3)CCN1C(=S)NC` [Product 47]: 10% and 40%.
Take `CCN(CC)CCCNC(=O)N1CCc2cc(OC)c3c4c2[C@@H]1Cc1ccc(cc1)Oc1cc(ccc1OC)C[C@H]1c2cc(c(cc2CCN1C)O3)O4` [Product 49]: the inhibition at 10 µM was 60% and the inhibition at 32 µM turned out to be 75%. Moreover, under setting [1], the EC50 is 6.1 µM. In addition, the EC50 under setting [2] was in the range of 3.72 to 10 µM.
Regarding `COc1ccc2cc1Oc1ccc(cc1)C[C@H]1c3c(cc(OC)c4c3Oc3cc5c(cc3O4)CCN(C)[C@H]5C2)CCN1CCCn1cnc2c(N)ncnc21` [Product 28], the inhibition at 10 µM was 18% and the inhibition at 32 µM was 60%.
As for `COc1ccc2cc1Oc1ccc(cc1)C[C@H]1c3c(cc(OC)c4c3Oc3cc5c(cc3O4)CCN(CC#N)[C@H]5C2)CCN1CC#N` [Product 21], the inhibition at 10 µM is 32% and the inhibition at 32 µM stood at 82%.
The matching figures for `COc1ccc2cc1Oc1ccc(cc1)C[C@H]1c3c(cc(OC)c4c3Oc3cc5c(cc3O4)CCN(CCCCn3cnc4c(N)ncnc43)[C@H]5C2)CCN1C` [Product 25]: 46% and 72%.
The matching figures for `COc1cc2c3c4c1Oc1cc5c(cc1O4)[C@H](Cc1ccc(OS(=O)(=O)C(F)(F)F)c(c1)Oc1ccc(cc1)C[C@@H]3N(C)CC2)N(C)CC5` [Product 54]: 0% and 32%.
For `COc1ccc2cc1Oc1ccc(cc1)CC1c3c(cc(OC)c4c3Oc3cc5c(cc3O4)CCN(C)[C@H]5C2)CCN1C(=O)/C=C/CN(C)C` (stereo partly shown) [Product 33], in that order: 32% and 87%.
In the case of `COc1ccc2cc1Oc1ccc(cc1)C[C@H]1c3c(cc(OC)c4c3Oc3cc5c(cc3O4)CCN(C)[C@H]5C2)CCN1CCCCn1cnc2c(N)ncnc21` [Product 27], the inhibition at 10 µM came to 21% and the inhibition at 32 µM came out at 67%.
For `COc1ccc2cc1Oc1ccc(cc1)C[C@H]1c3c(cc(OC)c4c3Oc3cc5c(cc3O4)CCN(C)[C@H]5C2)CCN1C(=O)OCCCCn1cnc2c(N)ncnc21` [Product 18], in that order: 66% and 66%.
The matching figures for `CNC(=O)N1CCc2cc(OC)c3c4c2[C@@H]1Cc1ccc(cc1)Oc1cc(ccc1OC)C[C@@H]1NCCc2cc(c(cc21)O4)O3` [Product 51]: 2% and 69%.
